Patent US4607047A, “N-(allyl-2-pyrrolidinylmethyl) 2-methoxy-4-amino-5-methylsulfamoyl benzamide anti platelets aggregation agent” (Societe d'Etudes Scientifiques et Industrielles de …, priority 1983, dated 1986)
pIC50: −log10 of the molar value.

What was measured:
[1] = target: T1, alpha-2 receptors (Oryctolagus cuniculus); assay: potentiation (induced by CLONIDINE) of platelet aggregation caused by adenosinephosphate; format: cell-based, rabbits; conditions: rabbit platelets; read-out: IC50, anti-adrenergic effect (potentiation induced by CLONIDINE of platelet aggregation caused by adenosinephosphate)
T1 construct: potentiation (induced by CLONIDINE) of platelet aggregation caused by adenosinephosphate; endogenous in cells; host or cells: rabbit blood platelets
Excerpt: (§1) The following pharmacological results illustrate the activity of the compound on platelet aggregation, the potentiation of such aggregation, the uptake of serotonin (the chemical name for which is 5-hydroxytryptamine) by the platelets and the release reaction of such platelets.

alpha-2 receptors = target: T2, alpha-2 receptors (Oryctolagus cuniculus, UniProt Q5ZQK3); assay: as above; format: cell-based, rabbits; conditions: rabbit platelets
T2 construct: potentiation (induced by CLONIDINE) of platelet aggregation caused by adenosinephosphate; endogenous in cells; host or cells: rabbit blood platelets
T2 sequence (Q5ZQK3 1-451): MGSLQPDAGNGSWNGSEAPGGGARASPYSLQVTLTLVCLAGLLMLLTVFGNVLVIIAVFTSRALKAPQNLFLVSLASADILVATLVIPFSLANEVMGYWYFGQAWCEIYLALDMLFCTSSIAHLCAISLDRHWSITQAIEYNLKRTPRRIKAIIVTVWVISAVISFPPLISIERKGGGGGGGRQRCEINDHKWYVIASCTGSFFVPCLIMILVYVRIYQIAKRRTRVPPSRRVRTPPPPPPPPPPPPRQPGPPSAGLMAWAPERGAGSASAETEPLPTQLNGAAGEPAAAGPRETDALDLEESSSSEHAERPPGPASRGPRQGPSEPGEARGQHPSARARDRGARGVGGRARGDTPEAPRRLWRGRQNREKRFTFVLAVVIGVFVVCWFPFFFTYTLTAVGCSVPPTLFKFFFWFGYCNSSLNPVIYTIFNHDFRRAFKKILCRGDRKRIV
Excerpt: as §1

[2] = test system: central dopaminergic receptors; assay: action on central dopaminergic receptors; apomorphine climbing and stereotypies; format: in vivo, rodents
Excerpt: Although under those conditions the pathogenetic role of platelet dysfunction has not been definitively established, various medicaments which are assumed to act by interfering with the platelet function have been widely used. Reference may be made for example to aspirin, dipyridamole and sulphinpyrazone. […] It can be said therefore that the undesirable neurological effects are very limited with that medicament.

platelets [3] = assay: platelet aggregation caused by adenosine phosphate; format: cell-based; conditions: in vitro, rabbits
Description: as §1, with “platelets. This study was carried out on rabbits:” for “platelets.”
An inhibiting effect on the aggregation of platelets, caused by adenosine phosphate is observed.

human platelets [4] = assay: aggregation induced by 5-hydroxytryptamine, human platelets in vitro; format: cell-based
Description: (§2) All those results agreeing, the following study was carried on human platelets in vitro, before proceeding to therapeutic applications. It relates to the effects of the compound according to the invention, in regard to aggregation induced by thrombin, collagen, adrenaline, and 5-hydroxytryptamine, and with regard to the release of carbon 14-marked 5-hydroxytryptamine, by thrombin, adrenaline and collagen.

human platelets [5] = assay: release of marked 5-hydroxytryptamine induced by collagen, human platelets; format: cell-based; conditions: human platelets in vitro
Description: as §2

platelets [6] = assay: potentiation (induced by adrenaline) of platelet aggregation caused by adenosinephosphate; format: cell-based, rabbits; conditions: rabbit platelets
Description: as §1, with “platelets. This study was carried out on rabbits:” for “platelets.”
It is 20 times less powerful than PHENTOLAMINE as an adrenaline antagonist.

vascular thrombus = assay: in vivo formation of a caused vascular thrombus; conditions: animals
human platelets [7] = assay: aggregation induced by collagen, human platelets in vitro; format: cell-based
Description: as §2

rabbit platelets = assay: release of carbon 14-marked 5-hydroxytryptamine induced by adrenaline; format: cell-based; conditions: Oryctolagus cuniculus, Platelet, read-out: IC50, inhibition of release of carbon 14-marked 5-hydroxytryptamine induced by adrenaline
Excerpt: as §1

human platelets [8] = assay: uptake of carbon 14-marked 5-hydroxytryptamine, human platelets in vitro; format: cell-based
human platelets [9] = assay: platelet release reaction induced by adrenaline, human platelets; format: cell-based; conditions: human platelets in vitro; witnessed by inhibition of second phase of aggregation
Description: as §2

human platelets [10] = assay: release of carbon 14-marked 5-hydroxytryptamine induced by thrombin, human platelets; format: cell-based; conditions: human platelets in vitro
Description: as §2

platelets [11] = assay: uptake of carbon 14-marked 5-hydroxytryptamine by platelets; format: cell-based; conditions: Oryctolagus cuniculus, Platelet; rabbit platelets
Excerpt: as §1

human platelets [12] = assay: aggregation induced by adrenaline, human platelets in vitro; format: cell-based
Description: as §2

platelets [13] = assay: potentiation (induced by 5-hydroxytryptamine) of platelet aggregation caused by adenosinephosphate; format: cell-based, rabbits; conditions: rabbit platelets
Description: as §1, with “platelets. This study was carried out on rabbits:” for “platelets.”
It is 63 times less powerful than METHYSERGIDE as a 5-hydroxytryptamine antagonist.

platelets [14] = assay: release of carbon 14-marked 5-hydroxytryptamine induced by collagen; format: cell-based, rabbits; conditions: rabbit platelets
Description: as §1, with “platelets. This study was carried out on rabbits:” for “platelets.”
(§3) The compound counteracts the action of collagen on the platelets.
The compound of the invention is 13 times more powerful than aspirin, which is well known for inhibiting the platelet release reaction.

platelets [15] = assay: platelet aggregation induced by collagen; format: cell-based, rabbits; conditions: rabbit platelets
Description: as §1, with “platelets. This study was carried out on rabbits:” for “platelets.”
as §3
a. prolongation of the typical latency phase which precedes aggregation of the platelets induced by collagen,
b. inhibition of the aggregation effect induced by collagen, and […]

human platelets [16] = assay: aggregation induced by thrombin, human platelets in vitro; format: cell-based; conditions: thrombin 3.3 units/ml PRP
Description: as §2

C=CCN1CCCC1CNC(=O)c1cc(S(=O)(=O)NC)c(N)cc1OC (stereo not shown) [the compound, N-(1-allyl-2-pyrrolidinylmethyl) 2-methoxy 4-amino 5-methylsulphamoyl benzamide]
pIC50 [1]: 4.53
activity relative to MIANSERINE as an alpha-2 antagonist (alpha-2 receptors): twice as active
action on the central dopaminergic receptors ([2]; animals): only a very weak action
doses to counteract apomorphine effects (climbing and stereotypies) ([2]; rodents): high doses are required
platelet aggregation caused by adenosine phosphate (platelets [3]): inhibits
aggregation of platelets induced by 5-hydroxytryptamine (human platelets [4]): inhibits
release of marked 5-hydroxytryptamine induced by collagen (human platelets [5]): inhibits
pIC50 (platelets [6]; Oryctolagus cuniculus, Platelet, read-out: IC50, inhibition of potentiation (induced by adrenaline) of platelet aggregation caused by adenosinephosphate): 5.00
times less powerful than PHENTOLAMINE as an adrenaline antagonist (platelets [6]): 20 times
conditions of formation of a caused vascular thrombus (anti-aggregating effect) (vascular thrombus): modifies the conditions of formation
aggregation of platelets induced by collagen (human platelets [7]): inhibits
pIC50 (rabbit platelets): 4.00
uptake of carbon 14-marked 5-hydroxytryptamine by platelets (human platelets [8]): does not influence
release reaction of the platelets induced by adrenaline (human platelets [9]): inhibits
release of carbon 14-marked 5-hydroxytryptamine induced by thrombin (human platelets [10]): inhibits
pIC50 (platelets [11]): < 4.00
first and second phases of aggregation of platelets induced by adrenaline (human platelets [12]): inhibits both
pIC50 (platelets [13]; Oryctolagus cuniculus, Platelet, read-out: IC50, inhibition of potentiation (induced by 5-hydroxytryptamine) of platelet aggregation caused by adenosinephosphate): 4.72
times less powerful than METHYSERGIDE as a 5-hydroxytryptamine antagonist (platelets [13]): 63 times
pIC50 (platelets [14]; Oryctolagus cuniculus, Platelet, read-out: IC50, inhibition of release of carbon 14-marked 5-hydroxytryptamine induced by collagen): 5.74
times more powerful than aspirin, platelet release reaction (platelets [14]; collagen-induced release): 13 times
aggregation effect induced by collagen (platelets [15]): inhibition
latency phase preceding aggregation of platelets induced by collagen (platelets [15]): prolongation
primary aggregation of platelets induced by thrombin (human platelets [16]): does not influence
second phase of aggregation induced by thrombin (human platelets [16]): inhibits
